Data taken from patent EP1306084A1, “Compositions for the control of parasitic infestations in fish” (Alpharma AS, priority 1998, dated 1999).

Assay: Specific growth rate after sea transfer (Example 5)
Assay type: in vivo, sea trout (Salmo trutta)
Settings: treated groups (oral, bath), after about 13 weeks; control group 0.37%
Protocol: About 300 sea trout (Salmo trutta) of an average weight of 160 grams were divided into three groups of 100 fish each. One group was given oral treatment for one week before they were transferred to sea at a daily dosage of 4 mg hexaflumuron per kg fish for 5 days. The second group was treated with a bath treatment using a dosage of 5 ppm hexaflumuron for 30 minutes with a formulation containing 10% hexaflumuron, while the last group remained untreated. The treatments were carried out in fresh water during the last week before the fish were transferred to sea water. In the sea water, the fish were distributed into 3 mini-cages with 100 fish in each. The fish were then exposed to natural sea lice infection. Lice from 6-10 fish from each cage were counted every third week to assess whether there was any difference in the number of lice between the cages. At the end of the trial, i.e. about 13 weeks after the fish had been transferred to sea, the fish in each cage were weighed to check possible differences in SGR. The water temperature varied within the range of 12 - 22°C during the trial.
After 11 weeks there was no difference between the groups, but the number of lice was very low in all groups, which makes it difficult to determine the length of the protection period. […] The SGR was determined after about 13 weeks. […]

Compound: O=C(NC(=O)c1c(F)cccc1F)Nc1cc(Cl)c(OC(F)(F)C(F)F)c(Cl)c1 [hexaflumuron]
- SGR: 0.84 - 0.98%
